Broadly, the pIC50 is −log10 of the IC50, conventionally taken in molar units. What is called IC50 is the concentration that gives 50% inhibition. For orientation: pKi means −log10 of the Ki, conventionally taken in molar units.

The values that follow come from ChEMBL document CHEMBL6074626, “Recent advances in triazole synthesis via click chemistry and their pharmacological applications: A review” (Bioorg Med Chem Lett, 2024).

The subject of one data set is MCF7. The experiment in a line: Cytotoxicity against human MCF7 cells assessed as reduction in cell viability incubated for 72 hrs by MTT assay. As to conditions: MCF7, 72 h. In general terms: Tetrazolium dyes change colour on reduction, which living cells bring about.
The test system of a further data set is HT-29. The experiment in a line: Cytotoxicity against human HT-29 cells assessed as reduction in cell viability incubated for 72 hrs by MTT assay. The note with it: HT-29, 72 h.
A further data set relates to MOLT-4. In words: Cytotoxicity against human MOLT-4 cells assessed as reduction in cell viability incubated for 72 hrs by MTT assay. As to conditions: MOLT-4, 72 h.
For data set [1], the system named is Bacillus cereus. In words: microbe, parasite or virus in culture. The note with it: ATTC 10876.
Description: Antibacterial activity against Bacillus cereus ATTC 10876 assessed as reduction in bacterial growth incubated for 18 to 24 hrs by broth microdilution method
The subject of data set [2] is Enterococcus faecalis. In words: microbe, parasite or virus in culture. As to conditions: ATTC 29212, 24 h.
Description: Antibacterial activity against Enterococcus faecalis ATCC 29212 assessed as reduction in bacterial growth incubated for 24 hrs by CLSI protocol based assay
Data set [3] deals with Staphylococcus aureus. In words: microbe, parasite or virus in culture. The note with it: ATCC 25923.
Description: Antibacterial activity against Staphylococcus aureus ATCC 25923 assessed as reduction in bacterial growth incubated for 18 to 24 hrs by broth microdilution method
The test system of data set [4] is Enterococcus faecalis. The experiment in a line: microbe, parasite or virus in culture. The note with it: ATCC 29212, 24 h.
Description: Antibacterial activity against Enterococcus faecalis ATCC 29212 assessed as inhibition of bacterial growth incubated for 24 hrs by broth microdilution method
For another data set, the system named is Proteus mirabilis. In words: microbe, parasite or virus in culture. As to conditions: ATCC 35659.
Data set [5] deals with Escherichia coli. The experiment in a line: microbe, parasite or virus in culture. The note with it: ATCC 25922.
Description: Antibacterial activity against Escherichia coli ATCC 25922 assessed as reduction in bacterial growth incubated for 18 to 24 hrs by broth microdilution method
Another data set deals with Pseudomonas aeruginosa. In words: microbe, parasite or virus in culture. The note with it: ATCC 27853.
A short description of data set [6]: Cytotoxicity against CHO-K1 cells assessed as reduction in cell growth incubated for 72 hrs by MTT assay. As to conditions: Chinese hamster (Cricetulus griseus).
Data set [7] has as its target Cystic fibrosis transmembrane conductance regulator (Homo sapiens, UniProt P13569, F508DEL). In words: Activation of CFTR F508del mutant (unknown origin).
Data set [8] in a line: Antioxidant activity assessed as DPPH radical scavenging activity incubated for 30 mins. (In general: The DPPH test is a chemical assay of radical scavenging.)
Data set [9] has as its system Staphylococcus aureus. The experiment in a line: microbe, parasite or virus in culture. As to conditions: NCTC 13616, 20 h.
Description: Antibacterial activity against methicillin-resistant Staphylococcus aureus NCTC 13616 assessed as reduction in bacterial growth incubated for 20 hrs by broth micro-dilution method
In another data set the test system is Bacillus subtilis. The experiment in a line: microbe, parasite or virus in culture. The note with it: ATCC 6633, 20 h.
The subject of data set [10] is Bacillus cereus. The experiment in a line: microbe, parasite or virus in culture. The note with it: ATCC 14579.
Description: Antibacterial activity against Bacillus cereus ATCC 14579 assessed as reduction in bacterial growth incubated for 18 to 24 hrs by broth microdilution method
Another data set relates to Klebsiella pneumoniae. In words: microbe, parasite or virus in culture. The note with it: ATCC 43816, 20 h.
The test system of data set [11] is Escherichia coli. In words: microbe, parasite or virus in culture. The note with it: ATCC 8739, 20 h.
Description: Antimicrobial activity against Escherichia coli ATCC 8739 assessed as reduction in bacterial growth incubated for 20 hrs by broth microdilution analysis
The subject of a further data set is Proteus vulgaris. The experiment in a line: microbe, parasite or virus in culture. The note with it: ATCC 13315, 24 h.
In data set [12] the target is T1, UDP-N-acetylglucosamine--peptide N-acetylglucosaminyltransferase 110 kDa subunit (Homo sapiens, UniProt O15294).
T1 sequence (O15294 whole entry): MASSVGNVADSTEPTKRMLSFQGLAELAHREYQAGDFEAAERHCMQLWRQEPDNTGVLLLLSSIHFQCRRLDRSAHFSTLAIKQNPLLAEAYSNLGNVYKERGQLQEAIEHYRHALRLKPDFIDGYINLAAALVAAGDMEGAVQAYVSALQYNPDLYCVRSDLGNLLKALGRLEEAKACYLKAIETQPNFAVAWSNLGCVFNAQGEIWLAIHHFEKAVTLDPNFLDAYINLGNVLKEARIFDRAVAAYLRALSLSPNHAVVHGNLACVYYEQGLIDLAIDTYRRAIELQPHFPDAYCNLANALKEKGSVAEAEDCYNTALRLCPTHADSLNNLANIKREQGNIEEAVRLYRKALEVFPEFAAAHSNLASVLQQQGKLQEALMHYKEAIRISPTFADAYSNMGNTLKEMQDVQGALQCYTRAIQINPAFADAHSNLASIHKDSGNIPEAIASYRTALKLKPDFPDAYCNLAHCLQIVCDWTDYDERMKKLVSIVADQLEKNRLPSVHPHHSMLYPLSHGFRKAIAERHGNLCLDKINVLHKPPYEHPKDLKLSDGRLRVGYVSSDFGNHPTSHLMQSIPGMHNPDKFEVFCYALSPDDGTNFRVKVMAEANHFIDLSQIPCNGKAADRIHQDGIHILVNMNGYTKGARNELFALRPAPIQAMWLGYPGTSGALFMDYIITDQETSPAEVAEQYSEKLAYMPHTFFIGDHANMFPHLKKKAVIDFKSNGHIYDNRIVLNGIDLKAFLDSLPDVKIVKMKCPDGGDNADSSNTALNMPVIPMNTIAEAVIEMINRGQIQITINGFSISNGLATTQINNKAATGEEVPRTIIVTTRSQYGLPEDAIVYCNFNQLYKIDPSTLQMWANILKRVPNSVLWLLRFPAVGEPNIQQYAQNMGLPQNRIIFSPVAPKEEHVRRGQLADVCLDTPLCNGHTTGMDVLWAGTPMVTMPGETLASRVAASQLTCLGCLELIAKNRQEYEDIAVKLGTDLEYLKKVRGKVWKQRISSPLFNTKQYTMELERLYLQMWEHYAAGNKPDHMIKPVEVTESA
Description: Binding affinity to human recombinant OGT (312 to 1031 residue) assessed as inhibition constant by fluorescence based analysis

Another data set deals with K562. The experiment in a line: Antiproliferative activity against human K562 cells assessed as reduction in cell viability incubated for 72 hrs by MTT assay. The note with it: K562, 72 h.
In another data set the test system is HCT-116. In words: Antiproliferative activity against human HCT-116 cells assessed as reduction in cell viability incubated for 72 hrs by MTT assay. The note with it: HCT-116, 72 h.

pIC50, pKi: −log10 of the molar value. In brackets after ≈: the same amount, converted by molar mass.

Chain of Cystic fibrosis transmembrane conductance regulator (P13569 as listed by the source): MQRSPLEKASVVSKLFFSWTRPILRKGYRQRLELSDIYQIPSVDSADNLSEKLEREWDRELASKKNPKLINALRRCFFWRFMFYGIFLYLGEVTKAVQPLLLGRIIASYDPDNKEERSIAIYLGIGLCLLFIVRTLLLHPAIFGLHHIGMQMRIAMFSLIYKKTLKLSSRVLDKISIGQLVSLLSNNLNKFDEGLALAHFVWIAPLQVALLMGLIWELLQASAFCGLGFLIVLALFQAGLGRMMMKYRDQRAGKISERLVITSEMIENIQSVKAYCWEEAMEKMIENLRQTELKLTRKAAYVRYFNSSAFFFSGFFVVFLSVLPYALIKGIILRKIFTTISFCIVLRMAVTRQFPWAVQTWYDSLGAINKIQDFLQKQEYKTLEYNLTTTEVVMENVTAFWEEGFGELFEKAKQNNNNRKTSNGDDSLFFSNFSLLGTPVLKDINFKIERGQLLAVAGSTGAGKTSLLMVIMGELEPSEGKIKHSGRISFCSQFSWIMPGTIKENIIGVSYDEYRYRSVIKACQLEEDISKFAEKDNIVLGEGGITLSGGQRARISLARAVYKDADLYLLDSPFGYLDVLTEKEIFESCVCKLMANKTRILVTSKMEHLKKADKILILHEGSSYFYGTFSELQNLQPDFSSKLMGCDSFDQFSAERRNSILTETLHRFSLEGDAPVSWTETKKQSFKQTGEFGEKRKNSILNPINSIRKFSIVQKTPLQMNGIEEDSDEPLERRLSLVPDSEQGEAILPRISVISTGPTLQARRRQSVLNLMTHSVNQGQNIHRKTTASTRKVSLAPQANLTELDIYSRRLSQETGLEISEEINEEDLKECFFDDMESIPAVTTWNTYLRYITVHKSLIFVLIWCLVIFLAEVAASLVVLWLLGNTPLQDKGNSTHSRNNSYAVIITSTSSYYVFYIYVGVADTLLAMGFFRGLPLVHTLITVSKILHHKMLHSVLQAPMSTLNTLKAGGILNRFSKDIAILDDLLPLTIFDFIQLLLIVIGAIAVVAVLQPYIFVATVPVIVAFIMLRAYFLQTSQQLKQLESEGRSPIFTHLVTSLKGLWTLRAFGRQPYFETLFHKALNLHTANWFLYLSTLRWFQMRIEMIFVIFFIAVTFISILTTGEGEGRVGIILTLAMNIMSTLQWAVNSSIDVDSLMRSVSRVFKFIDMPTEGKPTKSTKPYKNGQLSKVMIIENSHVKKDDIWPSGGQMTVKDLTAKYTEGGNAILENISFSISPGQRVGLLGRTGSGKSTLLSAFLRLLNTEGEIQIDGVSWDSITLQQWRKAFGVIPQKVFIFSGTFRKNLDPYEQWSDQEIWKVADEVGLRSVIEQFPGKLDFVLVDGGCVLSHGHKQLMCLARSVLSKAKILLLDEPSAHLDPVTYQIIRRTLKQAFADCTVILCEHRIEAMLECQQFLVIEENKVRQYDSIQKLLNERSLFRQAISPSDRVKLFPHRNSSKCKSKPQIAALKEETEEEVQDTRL
Description for Bacillus subtilis: Antibacterial activity against Bacillus subtilis ATCC 6633 assessed as bacterial growth inhibition measured for 20 hrs by micro-broth dilution method
Description for Klebsiella pneumoniae: Antimicrobial activity against Klebsiella pneumoniae ATCC 43816 assessed as reduction in bacterial growth incubated for 20 hrs by broth microdilution analysis
Description for Proteus mirabilis: Antibacterial activity against Proteus mirabilis ATCC 35659 assessed as reduction in bacterial growth incubated for 18 to 24 hrs by broth microdilution method
Description for Proteus vulgaris: Antimicrobial activity against Proteus vulgaris ATCC 13315 assessed as microbial growth inhibition incubated for 24 hrs by broth microdilution method
Description for Pseudomonas aeruginosa: Antimicrobial activity against Pseudomonas aeruginosa ATCC 27853 assessed as inhibition of microbial growth by CLSI protocol based two-fold serial broth microdilution method

Consider `O=C1C=C(NCc2cn(Cc3ccc(C(F)(F)F)cc3)nn2)C(=O)c2ccccc21`, for which the pIC50 in the data set with MCF7 was 4.98; with HT-29, 5.17; in the data set on MOLT-4, 4.98.
Regarding `CCCCCCCCCCCCn1nnc(-c2n[nH]c(=S)n2N)c1-c1n[nH]c(=S)n1N`, the MIC against Bacillus cereus [1], in the data set with Enterococcus faecalis [2], against Staphylococcus aureus [3], against Enterococcus faecalis [4], against Proteus mirabilis and in the data set with Escherichia coli [5] was 1 µM (≈ 0.466 µg/mL) throughout. In the data set with Pseudomonas aeruginosa, this compound showed an MIC of 1 µM (≈ 0.466 µg/mL).
In the case of `CCCCCCCCCCCCCCCCn1nnc(-c2n[nH]c(=S)n2N)c1-c1n[nH]c(=S)n1N`, the MIC against Bacillus cereus [1], in the data set on Enterococcus faecalis [2], against Staphylococcus aureus [3], in the data set on Enterococcus faecalis [4], against Proteus mirabilis and in the data set on Escherichia coli [5] was 1 µM (≈ 0.522 µg/mL) in each case. The compound also showed an MIC against Pseudomonas aeruginosa of 1 µM (≈ 0.522 µg/mL).
Turning to `CCCCCCCCCCn1nnc(-c2n[nH]c(=S)n2N)c1-c1n[nH]c(=S)n1N`, the MIC with Bacillus cereus [1], against Enterococcus faecalis [2], in the data set with Staphylococcus aureus [3], with Enterococcus faecalis [4], against Proteus mirabilis and against Escherichia coli [5] was 1 µM (≈ 0.438 µg/mL) each time. The MIC in the data set on Pseudomonas aeruginosa was 1 µM (≈ 0.438 µg/mL).
Regarding `CCCCCCCCCCCCCCn1nnc(-c2n[nH]c(=S)n2N)c1-c1n[nH]c(=S)n1N`, the MIC against Bacillus cereus [1], with Enterococcus faecalis [2], in the data set with Staphylococcus aureus [3], against Enterococcus faecalis [4], against Proteus mirabilis and in the data set with Escherichia coli [5] was 1 µM (≈ 0.494 µg/mL) in each case. Further, the MIC with Pseudomonas aeruginosa came out at 1 µM (≈ 0.494 µg/mL).
`O=C(Cn1cc(CSc2nc3cc(OC(F)F)ccc3[nH]2)nn1)NC1CCCCC1`: in data set [6], the half-inhibitory concentration (IC50) at 72 h came to 53.3 µM.
On to `Cc1ccc(-n2cc(C3(c4ccc5c(c4)OC(F)(F)O5)CC3)nn2)cc1-c1cccc(C(=O)O)c1`, for which the negative-log IC50 (pIC50) in data set [7] is 6.18.
As to `O=c1cc(-c2ccc(OCCCn3cc(-c4cc5ccccc5c5ccccc45)nn3)cc2)oc2ccccc12`, in data set [8], the negative logarithm of the IC50 (pIC50) is 4.54.
Turning to `CC(C)Cc1ccc(C(C)C(=O)c2ccc(OCc3cn(-c4ccccc4)nn3)cc2O)cc1` (stereo not drawn), the MIC against Staphylococcus aureus [9], against Bacillus subtilis, in the data set with Bacillus cereus [10], against Klebsiella pneumoniae, against Escherichia coli [11] and against Proteus vulgaris was 12 µg/mL (≈ 26.3 µM) throughout.
`CC(C)Cc1ccc(C(C)C(=O)c2ccc(OCc3cn(-c4cccc(Cl)c4)nn3)cc2O)cc1` (stereo not drawn): the MIC in the data set on Staphylococcus aureus [9], against Bacillus subtilis, with Bacillus cereus [10], against Klebsiella pneumoniae, in the data set with Escherichia coli [11] and against Proteus vulgaris was 12 µg/mL (≈ 24.5 µM) in each case.
As to `CC(C)Cc1ccc(C(C)C(=O)c2ccc(OCc3cn(-c4ccc(Br)cc4)nn3)cc2O)cc1` (stereo not drawn), the MIC with Staphylococcus aureus [9], against Bacillus subtilis, with Bacillus cereus [10], in the data set with Klebsiella pneumoniae, against Escherichia coli [11] and with Proteus vulgaris was 12 µg/mL (≈ 22.5 µM) throughout.
Consider `CC(C)Cc1ccc(C(C)C(=O)c2ccc(OCc3cn(-c4ccc([N+](=O)[O-])cc4)nn3)cc2O)cc1` (stereo not drawn), for which the MIC against Staphylococcus aureus [9], in the data set with Bacillus subtilis, against Bacillus cereus [10], against Klebsiella pneumoniae, in the data set with Escherichia coli [11] and against Proteus vulgaris was 12 µg/mL (≈ 24 µM) each time.
For the compound `CCCCc1cn(CCCOc2ccc(-c3cc(=O)c4ccccc4o3)cc2)nn1`, in [8], the negative-log IC50 (pIC50) was 4.53.
For the compound `CC(C)Cc1ccc(C(C)C(=O)c2ccc(OCc3cn(C4CCCCC4)nn3)cc2O)cc1` (stereo not drawn), the MIC against Staphylococcus aureus [9], in the data set with Bacillus subtilis, against Bacillus cereus [10], in the data set on Klebsiella pneumoniae, against Escherichia coli [11] and in the data set with Proteus vulgaris was 12 µg/mL (≈ 26 µM) each time.
Consider `CC(C)Cc1ccc(C(C)C(=O)c2ccc(OCc3cn(-c4ccc(Cl)cc4)nn3)cc2O)cc1` (stereo not drawn), for which the MIC in the data set on Staphylococcus aureus [9], against Bacillus subtilis, against Bacillus cereus [10], in the data set on Klebsiella pneumoniae, with Escherichia coli [11] and with Proteus vulgaris was 12 µg/mL (≈ 24.5 µM) in each case.
In data set [12], `CC(=O)N[C@H]1C(n2cc(COP(=O)(O)OC[C@H]3O[C@@H](n4ccc(=O)[nH]c4=O)[C@H](O)[C@@H]3O)nn2)O[C@H](CO)[C@@H](O)[C@@H]1O` (stereo partly drawn) had a pKi of 3.63.
For `COC(=O)CC[C@@H](C)[C@H]1CC[C@H]2[C@@H]3[C@@H](O)C[C@@H]4C[C@H](n5cc(CCCCC#Cc6nc7c(N)ncnc7n6[C@@H]6O[C@H](CO)[C@@H](C)[C@H]6C)nn5)CC[C@]4(C)[C@H]3CC[C@]12C`, the pIC50 with K562 is 5.07; with HCT-116, 4.64.
As for `CCCCCc1ccc(-c2cn(CCCOc3ccc(-c4cc(=O)c5ccccc5o4)cc3)nn2)cc1`, the pIC50 in [8] was 4.44.
For `CC(C)Cc1ccc(C(C)C(=O)c2ccc(OCc3cn(C4CCCC4)nn3)cc2O)cc1` (stereo not drawn), the MIC against Staphylococcus aureus [9], in the data set on Bacillus subtilis, with Bacillus cereus [10], with Klebsiella pneumoniae, in the data set with Escherichia coli [11] and in the data set with Proteus vulgaris was 12 µg/mL (≈ 26.8 µM) each time.
As for `CC(C)Cc1ccc(C(C)C(=O)c2ccc(OCc3cn(-c4ccccc4Cl)nn3)cc2O)cc1` (stereo not drawn), the MIC in the data set with Staphylococcus aureus [9], against Bacillus subtilis, in the data set on Bacillus cereus [10], against Klebsiella pneumoniae, in the data set with Escherichia coli [11] and in the data set on Proteus vulgaris was 12 µg/mL (≈ 24.5 µM) each time.
For `CCCCCCCCCCCCn1cc(COc2ccc(C(=O)C(C)c3ccc(CC(C)C)cc3)c(O)c2)nn1` (stereo not drawn), the MIC against Staphylococcus aureus [9], in the data set with Bacillus subtilis, against Bacillus cereus [10], in the data set with Klebsiella pneumoniae, with Escherichia coli [11] and with Proteus vulgaris was 12 µg/mL (≈ 21.9 µM) throughout.
